# In patent US6441036B1 (priority 1998, dated 2002):
# Assays:
# Salmonella typhimurium = assay: Test for mutagenic activity in Salmonella typhimurium strains; type: cell-based; conditions: 3-1000 mg/plate (TTA), 2-5000 mg/plate (TSA)
# From the text: Tests for mutagenic activity have been performed by Covance Laboratories Limited, England. […] Furthermore, TTA was not mutagenic when tested in mouse lymphoma cells […] L5178Y.
# [1] = Blood insulin and glucose in 4 month old obese Zucker (fa/fa) rats (Example 13); type: in vivo; conditions: standard chow with 0.15% TTA, 21 days
# Protocol: (§1) Glucose (GLU, Boehringer Mannheim, Germany), free fatty acids (NEFA, C ACS-ACOD kit; Wako Chemicals, Dalton, USA) and b-hydroxybutyrate (310-A kit; Sigma Diagnostics Inc., St. Louis, USA) concentrations were measured using enzymatic methods. Insulin concentrations were determined with radioimmunoassay by (CIS bio International, Gif sur Yvette, France) using rat insulin as standard in the Zucker rats. In the Wistar Charles River rats, plasma glucose concentrations were measured with the aid of Beckman Glucose Analyzer (Fullerton, Calif., USA). Plasma insulin levels were measured using a RIA kit from Linco Research Inc. (St. Charles, Mo., USA). Phospholipids were measured by the enzymatic method of bioMérieux, Marcy-l{grave over ( )}Etoile, France, Triacylglycerol by the Technicon Method no. SA4-0324L90, USA and Cholesterol by the Technicon Method no. SA4-0305L90, USA.
# The rats were given a standard chow diet, either with (n=5) or without (n=6) 0.15% TTA. Following 21 days of treatment, blood was collected and the levels of insulin and glucose measured. Data are means±S.D.
# [2] = High fat diet induced hyperinsulinemia (Example 11); type: in vivo, Wistar Charles River rats; conditions: HF diet supplemented with TTA, 21 days, overnight fast
# Protocol: as §1
# Rats weighing 280-360 g were divided into 3 groups (n=6) and fed with three different diets: standard rat chow, high fat diet (HF) and HF supplemented with TTA. After 21 days on their respective diets, blood was collected after an overnight fast from the tail vein. The data are shown as mean±SEM. Results were analysed by ANOVA and different letters denote statistical significance (p<0.05).
# [3] = Intravenous glucose tolerance test (IVGTT); type: in vivo; conditions: 5 weeks old Zucker (fa/fa) rats
# Protocol: Male Zucker (fa/fa) rats (5 weeks old) were anaesthetised after a 5-hours fast, by intraperitoneal injection of sodium pentobarbital (50 mg/kg). The rats were injected with glucose (0.55 g/kg) in the saphenous vein and blood samples were collected from the tail vein in heparinized tubes at time 0, 5, 10, 15, 20 and 30 minutes after the glucose load. Samples were kept on ice, centrifuged and plasma was stored at −20° C. until analysis.
# [4] = Fatty acid content after 12 weeks administration to rats; type: in vivo; conditions: administration to rats for 12 weeks
# [5] = Body weight gain, liver and adipose tissue weight in young obese Zucker rats (Example 9); type: in vivo, obese Zucker (fa/fa) rats; conditions: 5 week-old male rats, TTA 300/kg/day in 0.5% CMC, 11 days; means ± SD
# Protocol: The obese Zucker (fa/fa) rats used in this study were bred at the U 465 INSERM animal facility from pairs originally provided by the Harriet G. Bird Laboratory (Stow, Mass., USA). Unless otherwise stated, the animals were maintained under a constant light-dark cycle (light from 7:00 a.m. to 7:00 p.m.) at 21±1° C. and were given free access to food and water. Three rats were housed per cage. Weight gains were recorded daily.
# 5 week-old male obese Zucker (fa/fa) rats fed with TTA, 300/kg/day suspended in 0.5% CMC. Control animals received CMC only. Following 11 days of treatment, rats were killed by cervical dislocation, liver and epididymal adipose tissue pads were dissected out and weighed. Data are means±SD of 6 animals in the control- and 6 animals in the experimental group.
# [6] = test system: mitochondrial β-oxidation; assay: Liver fatty acid oxidation in treated obese Zucker rats (Example 16); type: in vivo, obese Zucker (fa/fa) rats; conditions: palmitoyl-CoA and palmitoyl-L-carnitine as substrates; chow with 0.15% TTA, 21 days
# Protocol: Freshly isolated livers from individual old Zucker rats, were homogenised in ice-cold sucrose buffer (0.25 M sucrose, 10 mM HEPES (pH 7.4) and 2 mM EDTA). Post-nuclear and mitochondrial fractions were prepared using preparative differential centrifugation according to DeDuve et al. (De Duve, C., et al., Biochem. J., 60, 604-617 1955.) Modifications, purity and yield were as described earlier (Garras, A., et al., Biochim. Biophys. Acta, 1255, 154-160 1995.). Acid soluble products were measured in post-nuclear and mitochondrial enriched fractions, using [1-^14C]-palmitoyl-CoA and [1-^14C]-palmitoyl-L-carnitine (Radio-chemical Centre, Amersham, England) as substrates as described earlier (Willumsen, N., et al., J. Lipid Res., 34, 13-22 1993. Carnitine palmitoyltransferase-I and -II activities were measured in the post-nuclear and mitochondrial fractions essentially as described by Bremer (Bremer, J., Biochim. Biophys. Acta, 665, 628-631 1981.) and 3-hydroxy-3-methylglutharyl-CoA synthase was measured according to Clinkenbeard et al. (Clinkenbeard, K. D., et al., J. Biol. Chem, 250, 3108-3116 1975.) in the mitochondrial fractions.
# Obese Zucker (fa/fa) rats were given a standard chow either with (n=6) or without (n=5) 0.15% TTA. Following 21 days of treatment, rats were killed by cervical dislocation and the livers were removed. […] Values are expressed as the mean±S.D.
substance,measurement,setting,value
Tetradecylthioacetic acid [TTA],Induction of mutations,Salmonella typhimurium,did not induce mutations
same,Blood glucose concentration (FIG. 6),[1],reduces
same,Blood insulin concentration (FIG. 6),[1],reduces
same,High fat diet-induced hyperinsulinemia (FIG. 3),[2],prevents high fat diet-induced hyperinsulinemia
same,IVGTT glucose curves (FIG. 7B),[3]; TTA treated versus control,normal and comparable
same,Plasma insulin response to glucose (FIG. 7A),[3]; glucose 0.55 g/kg i.v.,significantly lower
same,Hepatic and plasma content of monounsaturated fatty acids (mainly oleic acid),[4],nearly doubled
same,Polyunsaturated fatty acids (mainly linoleic acid and DHA),[4],decreased
same,Body weight gain,[5],6.23 ± 0.28 g/day
same,Increase of liver fatty acid oxidation (FIG. 8A),[6],more than 7 fold
